Reference: PubChem BioAssay (NCI)
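Assay format: 96-well plates, 48-hour exposure. Abbreviation: GI50, concentration required for 50% inhibition of growth. TGI: total growth inhibition.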

Assays:
Assay in all cases: growth of human tumour cells (NCI), 48 h
[1] = test system: SNB-75 CNS
[2] = test system: T-47D breast
[3] = test system: HOP-62 NSCLC
[4] = test system: NCI-H226 lung
[5] = test system: SF-295 CNS
[6] = test system: RXF 393 renal
[7] = test system: EKVX NSCLC
[8] = test system: OVCAR-4 ovarian
[9] = test system: NCI-H522 lung
[10] = test system: MDA-MB-231 breast
[11] = test system: OVCAR-8 ovarian
[12] = test system: NCI-H460 lung
[13] = test system: RPMI-8226 leukemia
[14] = test system: IGROV1 ovarian
[15] = test system: MCF7 breast
[16] = test system: LOX IMVI melanoma
[17] = test system: SK-MEL-2 melanoma
[18] = test system: MOLT-4 leukemia
[19] = test system: NCI/ADR-RES ovarian
[20] = test system: MDA-MB-435
[21] = test system: HT29 colon
[22] = test system: SK-MEL-5 melanoma
[23] = test system: UO-31 renal
[24] = test system: K-562 leukemia
[25] = test system: BT-549 breast
[26] = test system: 786-0 renal
[27] = test system: HOP-92 NSCLC
[28] = test system: SN12C renal
[29] = test system: SNB-19 CNS
[30] = test system: M14 melanoma
[31] = test system: TK-10 renal
[32] = test system: OVCAR-5 ovarian
[33] = test system: SF-268 CNS
[34] = test system: COLO 205 colon
[35] = test system: SK-MEL-28 melanoma
[36] = test system: OVCAR-3 ovarian
[37] = test system: SR leukemia
[38] = test system: HL-60(TB) leukemia
[39] = test system: KM12 colon
[40] = test system: UACC-62 melanoma
[41] = test system: PC-3 prostate
[42] = test system: SW-620 colon
[43] = test system: HCT-15 colon
[44] = test system: U251 CNS
[45] = test system: MALME-3M melanoma
[46] = test system: HS 578T breast
[47] = test system: CCRF-CEM leukemia
[48] = test system: A498 renal
[49] = test system: DU-145 prostate
[50] = test system: UACC-257 melanoma
[51] = test system: HCC-2998 colon
[52] = test system: CAKI-1 renal
[53] = test system: HCT-116 colon
[54] = test system: ACHN renal
[55] = test system: A549 NSCLC
[56] = test system: SK-OV-3 ovarian
[57] = test system: SF-539 CNS
[58] = test system: NCI-H23 lung

SMILES: COC1=C(C)C(=O)c2c(c(CCCl)c3n2CCC3OC(C)=O)C1=O (configuration not stated)
- GI50 [1]: 141 nM
- TGI [1]: 376 nM
- GI50 [2]: 8.22 µM
- TGI [2]: > 94600 nM
- GI50 [3]: 122 nM
- TGI [3]: 793 nM
- GI50 [4]: 246 nM
- TGI [4]: 1030 nM
- GI50 [5]: 153 nM
- TGI [5]: 864 nM
- GI50 [6]: 167 nM
- TGI [6]: 390 nM
- GI50 [7]: 2090 nM
- TGI [7]: 7.3 µM
- GI50 [8]: 7.18 µM
- TGI [8]: 38.6 µM
- GI50 [9]: 192 nM
- TGI [9]: 850 nM
- GI50 [10]: 17.5 µM
- TGI [10]: 61.7 µM
- GI50 [11]: 897 nM
- TGI [11]: 19.4 µM
- GI50 [12]: 38.9 nM
- TGI [12]: 1290 nM
- GI50 [13]: 2840 nM
- TGI [13]: 27.3 µM
- GI50 [14]: 1650 nM
- TGI [14]: 10.1 µM
- GI50 [15]: 71 nM
- TGI [15]: 1850 nM
- GI50 [16]: 204 nM
- TGI [16]: 927 nM
- GI50 [17]: 319 nM
- TGI [17]: 1000 nM
- GI50 [18]: 4110 nM
- TGI [18]: > 100 µM
- GI50 [19]: 447 nM
- TGI [19]: 8.47 µM
- GI50 [20]: 523 nM
- TGI [20]: 1970 nM
- GI50 [21]: 152 nM
- TGI [21]: 1890 nM
- GI50 [22]: 84.9 nM
- TGI [22]: 228 nM
- GI50 [23]: 241 nM
- TGI [23]: 739 nM
- GI50 [24]: 1650 nM
- TGI [24]: > 33.1 µM
- GI50 [25]: 149 nM
- TGI [25]: 652 nM
- GI50 [26]: 287 nM
- TGI [26]: 1240 nM
- GI50 [27]: 4480 nM
- TGI [27]: 24 µM
- GI50 [28]: 391 nM
- TGI [28]: 15.4 µM
- GI50 [29]: 272 nM
- TGI [29]: 18.2 µM
- GI50 [30]: 171 nM
- TGI [30]: 592 nM
- GI50 [31]: 260 nM
- TGI [31]: 626 nM
- GI50 [32]: 325 nM
- TGI [32]: 9.32 µM
- GI50 [33]: 310 nM
- TGI [33]: 17.6 µM
- GI50 [34]: 136 nM
- TGI [34]: 399 nM
- GI50 [35]: 310 nM
- TGI [35]: 1090 nM
- GI50 [36]: 1480 nM
- TGI [36]: 5.43 µM
- GI50 [37]: 155 nM
- TGI [37]: > 32.5 µM
- GI50 [38]: 2430 nM
- TGI [38]: 33.6 µM
- GI50 [39]: 642 nM
- TGI [39]: 3.05 µM
- GI50 [40]: 208 nM
- TGI [40]: 578 nM
- GI50 [41]: 749 nM
- TGI [41]: 14.3 µM
- GI50 [42]: 453 nM
- TGI [42]: 12.3 µM
- GI50 [43]: 155 nM
- TGI [43]: 2350 nM
- GI50 [44]: 273 nM
- TGI [44]: 13.4 µM
- GI50 [45]: 188 nM
- TGI [45]: 414 nM
- GI50 [46]: 417 nM
- TGI [46]: 3.62 µM
- GI50 [47]: 3330 nM
- TGI [47]: > 95.8 µM
- GI50 [48]: 63.2 nM
- TGI [48]: 166 nM
- GI50 [49]: 24.8 nM
- TGI [49]: 1690 nM
- GI50 [50]: 227 nM
- TGI [50]: 733 nM
- GI50 [51]: 204 nM
- TGI [51]: 582 nM
- GI50 [52]: 350 nM
- TGI [52]: 2150 nM
- GI50 [53]: 791 nM
- TGI [53]: > 22.8 µM
- GI50 [54]: 142 nM
- TGI [54]: 417 nM
- GI50 [55]: 165 nM
- TGI [55]: 913 nM
- GI50 [56]: 279 nM
- TGI [56]: 983 nM
- GI50 [57]: 157 nM
- TGI [57]: 545 nM
- GI50 [58]: 58.6 nM
- TGI [58]: 992 nM

SMILES: CC(C)(C)CC(C)(C)c1ccc(O)c(Cc2ccc(Cl)cc2Cl)c1
- GI50 [1]: 1690 nM
- TGI [1]: 3080 nM
- GI50 [2]: 1.35 µM
- TGI [2]: 2690 nM
- GI50 [3]: 1420 nM
- TGI [3]: 2720 nM
- GI50 [4]: 1530 nM
- TGI [4]: 2870 nM
- GI50 [5]: 1620 nM
- TGI [5]: 2980 nM
- GI50 [6]: 1160 nM
- TGI [6]: 2410 nM
- GI50 [7]: 1570 nM
- TGI [7]: 2.94 µM
- GI50 [8]: 1.59 µM
- TGI [8]: 2.93 µM
- GI50 [9]: 1370 nM
- TGI [9]: 2700 nM
- GI50 [10]: 1.56 µM
- TGI [10]: 2.92 µM
- GI50 [11]: 1610 nM
- TGI [11]: 2.96 µM
- GI50 [12]: 1620 nM
- TGI [12]: 2970 nM
- GI50 [13]: 1240 nM
- TGI [13]: 3.66 µM
- GI50 [14]: 1700 nM
- TGI [14]: 3.12 µM
- GI50 [15]: 1520 nM
- TGI [15]: 2850 nM
- GI50 [16]: 1530 nM
- TGI [16]: 2860 nM
- GI50 [17]: 1440 nM
- TGI [17]: 2950 nM
- GI50 [18]: 1660 nM
- TGI [18]: 3.44 µM
- GI50 [19]: 1650 nM
- TGI [19]: 3.05 µM
- GI50 [20]: 1650 nM
- TGI [20]: 3010 nM
- GI50 [21]: 1670 nM
- TGI [21]: 3030 nM
- GI50 [22]: 1600 nM
- TGI [22]: 2950 nM
- GI50 [23]: 1500 nM
- TGI [23]: 2830 nM
- GI50 [24]: 2090 nM
- TGI [24]: 3.83 µM
- GI50 [25]: 2030 nM
- TGI [25]: 3520 nM
- GI50 [26]: 1650 nM
- TGI [26]: 3100 nM
- GI50 [27]: 1390 nM
- TGI [27]: 2.76 µM
- GI50 [28]: 1470 nM
- TGI [28]: 2.79 µM
- GI50 [29]: 1820 nM
- TGI [29]: 3.21 µM
- GI50 [30]: 1610 nM
- TGI [30]: 3080 nM
- GI50 [31]: 1540 nM
- TGI [31]: 2870 nM
- GI50 [32]: 1680 nM
- TGI [32]: 3.08 µM
- GI50 [33]: 1600 nM
- TGI [33]: 2.95 µM
- GI50 [34]: 1770 nM
- TGI [34]: 3150 nM
- GI50 [35]: 1610 nM
- TGI [35]: 2960 nM
- GI50 [36]: 1740 nM
- TGI [36]: 3.11 µM
- GI50 [37]: 1790 nM
- TGI [37]: 4.22 µM
- GI50 [38]: 2010 nM
- TGI [38]: 3.72 µM
- GI50 [39]: 1630 nM
- TGI [39]: 3 µM
- GI50 [40]: 1700 nM
- TGI [40]: 3070 nM
- GI50 [41]: 1540 nM
- TGI [41]: 2.88 µM
- GI50 [42]: 1640 nM
- TGI [42]: 2.99 µM
- GI50 [43]: 1740 nM
- TGI [43]: 3180 nM
- GI50 [44]: 1560 nM
- TGI [44]: 2.9 µM
- GI50 [45]: 1680 nM
- TGI [45]: 3240 nM
- GI50 [46]: 1710 nM
- TGI [46]: 3.72 µM
- GI50 [47]: 1530 nM
- TGI [47]: 3.19 µM
- GI50 [48]: 1330 nM
- TGI [48]: 2610 nM
- GI50 [49]: 1690 nM
- TGI [49]: 3050 nM
- GI50 [50]: 1510 nM
- TGI [50]: 2860 nM
- GI50 [51]: 1790 nM
- TGI [51]: 3250 nM
- GI50 [52]: 1310 nM
- TGI [52]: 2580 nM
- GI50 [53]: 1660 nM
- TGI [53]: 3.16 µM
- GI50 [54]: 1680 nM
- TGI [54]: 3050 nM
- GI50 [55]: 1510 nM
- TGI [55]: 2830 nM
- GI50 [56]: 1500 nM
- TGI [56]: 2820 nM
- GI50 [57]: 1840 nM
- TGI [57]: 3360 nM
- GI50 [58]: 1530 nM
- TGI [58]: 2890 nM
